Like-named read-outs stand apart in the source and are kept apart here.
Experiments:
[1] = system: γ-secretase (APP processing), SH-SY5Y cells expressing amyloid β protein (SP4CT cells); experiment: APP processing, secreted Aβ40 and Aβ42 from SH-SY5Y (SP4CT) cells, AlphaLisa; conditions: cell based assay
Procedure: APP Processing (Assay Quantitates Secreted Aβ Analytes from Cell Lines):
The effect of compounds on the abundance of Aβ40 and Aβ42 peptides generated from SH-SY5Y cells expressing amyloid β protein (SP4CT cells) was determined by an AlphaLisa™ assay. Analogous to an ELISA assay, generation of signal in this AlphaLisa™ assay requires “donor” and “acceptor” beads to be brought in close proximity by specific antibody recognition of either Aβ40 or Aβ42 peptides. The assay was accomplished by removing media from compound-treated SP4CT cells to two different microplates, followed by the addition of donor beads conjugated with streptavidin binding a biotinylated anti-amyloid β monocolonal antibody (clone 408). Acceptor beads directly conjugated with anti-Aβ40 monoclonal antibody (G210) were added to one microplate and anti-Aβ42 monoclonal antibody (12F4) acceptor beads were added to the other. Abundance of Aβ40 and Aβ42 was directly proportional to the luminescent signal generated following excitation of donor beads by laser light.

[2] = Pharmacokinetics in Sprague Dawley rats; type: in vivo; conditions: Rat; for AUC (Norm)(0-x) / clearance / half-life: 0.25 mg/kg; for clearance / half-life / bioavailability: Sprague Dawley, plasma; for clearance: intravenous; for bioavailability: 0.25 mg/kg IV or PO
Procedure: (§1) Pharmacokinetic parameters were determined in Sprague Dawley rats, Beagle dogs and Rhesus monkeys by dosing the compounds intravenously (IV) or orally (PO). A dose of 0.25 mg/kg was administered either IV or PO to each subject with a dosing solution of 0.25 mg/ml in a 30:70 v/v mixture of PEG400:40% Captisol®. Plasma samples were collected at 5 min. (IV only), 15 min., 30 min., 1 h, 2 h, 4 h, 6 h, 8 h, 24 h, 48 h, 72 h, 96 h, 120 h, 144 h, and 168 h. Samples were analyzed by LC-MS/MS (API5000™) to determine the concentration in plasma. Briefly, 50 μL plasma was precipitated with 200 μL acetonitrile containing an appropriate internal standard. Samples were filtered, 500 μL of water was added to each sample and 10 μL of this was injected on a C18 column (2.0 mm×30 mm, 3 μm particle size) and eluted using a gradient LC method with water containing 0.1% formic acid as the aqueous mobile phase, and acetonitrile containing 0.1% formic acid as the organic phase. Electrospray ionization with multiple reaction monitoring was used for MS/MS detection. Plasma concentration of the compounds was determined using a standard curve that was prepared similar to the samples in the respective matrix. Non-compartmental analysis was performed using Watson 7.2 to generate the PK parameters.

CSF Aβ40 = experiment: Example A: CSF Aβ40 reduction and tolerability in Rhesus monkeys, 30 mg/kg PO, one week; type: in vivo
From the text: (§2) Peak lowering of ˜46% was observed 24 hrs after each dose. […] Terminal phase pharmacokinetic characteristics of Example 1 in Rhesus monkey provide continuous inhibition over the course of one week achieving both an average as well as minimum reduction of CSF Aβ40 of >25%.

[3] = Pharmacokinetics in Beagle dogs; type: in vivo; conditions: Dog; for clearance / half-life / bioavailability: Beagle, plasma; for clearance: intravenous; for clearance / half-life / AUC (Norm)(0-x): 0.25 mg/kg; for bioavailability: 0.25 mg/kg IV or PO
Procedure: as §1

[4] = biological target: semi-purified γ-secretase; experiment: In vitro APP processing (C100Flag substrate, semi-purified γ-secretase, MESO Scale ELISA), mouse brain membranes; type: biochemical; conditions: in vitro assay
Procedure: (§3) In Vitro APP Processing (Assay Quatitates Aβ Analytes Generated from a Recombinant APPC100Flag Substrate Incubated with Semi-Purified γ-Secretase)
(§4) The effect of compounds on the abundance of Aβ40 and Aβ42 peptides generated from exogenous C100Flag substrate by semi-purified γ-secretase was determined by MESO Scale ELISA. Generation of signal in this MESO Scale assay requires an anti-amyloid monoclonal antibody (clone 408) conjugated with streptavidin to bind to a biotin-coated plate. Specific [Ru(bpy)3]2+-labeled monoclonal antibodies for either Aβ40 (G210) or Aβ42 (12F4) subsequently generate an electrochemiluminescence signal upon electrochemical stimulation. The assay was accomplished by incubating compound, C100Flag substrate and CHAPSO-solubilized P2 membranes from HeLa cells or brains of mouse, rat, or dog. The reaction was then transferred to two different biotinylated microplates for detection of either Aβ40 or Aβ42.

CSF Aβ40 and Aβ42 = experiment: Example B: CSF Aβ40 and Aβ42 levels and tolerability in rhesus monkeys, once-weekly oral 30 mpk; type: in vivo; conditions: oral once-weekly 30 mpk
Procedure: Example 1 was administered orally to rhesus monkeys once-weekly at a dose of 30 mpk and levels of Aβ40 and Aβ42 in the cerebrospinal fluid (CSF) were monitored.

[5] = biological target: semi-purified γ-secretase; experiment: In vitro APP processing (C100Flag substrate, semi-purified γ-secretase, MESO Scale ELISA), dog brain membranes; type: biochemical; conditions: in vitro assay
Procedure: as §3, §4

[6] = system: T1, gamma secretase-dependent cleavage of the Notch protein, HeLa cells; experiment: Notch processing, split-luciferase assay in HeLa cells; type: cell-based; conditions: cell based assay, HeLa cells, NotchΔE split-luciferase
T1 construct: HeLa Notch; other: cell based assay, HeLa cells, NotchΔE split-luciferase
From the text: (§5) Notch Processing: (Assay Quantitates Notch Intracellular Domain Release in Cell Lines):
(§6) A “split-luciferase” assay is used to measure inhibition of gamma secretase-dependent cleavage of the Notch protein. In this assay, HeLa cells were made to express a Notch protein lacking its extracellular domain (NotchΔE) fused to an N-terminal fragment of luciferase. The same cells also expressed a C-terminal fragment of luciferase fused to the immunoglobulin J kappa recombination signal sequence binding protein (RBP). Upon NotchΔE cleavage by gamma secretase, a Notch intracellular domain (NICD)-N terminal luciferase protein is generated which translocates to the nucleus and binds the RBP-C terminal luciferase fusion, bringing two independently nonfunctional halves of luciferase together to form a functional luciferase enzyme. The activity of luciferase in these cells is directly proportional to the amount of gamma secretase-cleaved Notch. Luciferase activity is determined by the standard techniques of luciferin addition to lysed cells and measurement of total luminescence.

[7] = system: gamma secretase-dependent cleavage of the Notch protein, HeLa cells; experiment: as above; type: cell-based; conditions: ratio HeLa Notch to SY5Y Aβ40
From the text: as §5, §6

[8] = biological target: semi-purified γ-secretase; experiment: In vitro APP processing (C100Flag substrate, semi-purified γ-secretase, MESO Scale ELISA), rat brain membranes; type: biochemical; conditions: in vitro assay
Procedure: as §3, §4

[9] = Example A: PK profile in Rhesus monkeys, 30 mg/kg PO single dose; type: in vivo; conditions: rhesus monkey, plasma
From the text: as §2

[10] = Pharmacokinetics in Rhesus monkeys; type: in vivo; conditions: for AUC (Norm)(0-x) / half-life / clearance: 0.25 mg/kg; for half-life / bioavailability / clearance: rhesus monkey, plasma; for bioavailability: 0.25 mg/kg IV or PO; for clearance: intravenous
Procedure: as §1

[11] = Aβ40, read-out: Tissue autonomous Aβ40, Mouse
[12] = Aβ40, read-out: Tissue autonomous Aβ40, Dog
[13] = Aβ40, read-out: Tissue autonomous Aβ40, Rat

| SMILES | IC50 ([1]; Aβ40, read-out: SY5Y Aβ40) [nM] | AUC (Norm)(0-x) [2] [µM·kg·h/mg] | clearance [2] [mL/min/kg] | half-life [2] [h] | bioavailability [2] [%] | clearance [3] [mL/min/kg] | half-life [3] [h] | bioavailability [3] [%] | AUC (Norm)(0-x) [3] [µM·kg·h/mg] | IC50 [4, 11] [nM] | IC50 [5, 12] [nM] | IC50 [6] [nM] | Notch/Aβ40 [7] | IC50 [8, 13] [nM] | AUC (Norm)(0-x) [10] [µM·kg·h/mg] | half-life [10] [h] | bioavailability [10] [%] | clearance [10] [mL/min/kg] | IC50 ([1]; Aβ42, read-out: SY5Y Aβ42) [nM] | further results |
| --- | --- | --- | --- | --- | --- | --- | --- | --- | --- | --- | --- | --- | --- | --- | --- | --- | --- | --- | --- | --- |
| O=S(=O)(N[C@H]1CC[C@@](c2cc(F)ccc2C(F)(F)F)(S(=O)(=O)c2ccc(C(F)(F)F)cc2)CC1)C(F)(F)F [Example 1, 1,1,1-trifluoro-N-(4-[5-fluoro-2-(trifluoromethyl)phenyl]-4-{[4-(trifluoromethyl)phenyl]sulfonyl}cyclohexyl)methanesulfonamide] | 1.4 ± 0.9 | 8.7 | 3.4 | 126 | 64 | 0.234 | 713 | 84 | 99 | 2.4 | 1.5 | 518 | 370 | 1.4 | 385 | 228 | 84 | 0.07 | – | minimum inhibition (CSF Aβ40) (CSF Aβ40; 24 hrs (day 1) to 144 hrs (day 6)): > 25%; Peak lowering of CSF Aβ40 (CSF Aβ40; 24 hrs after each dose): ~46%; average daily CSF Aβ40 reduction relative to baseline (CSF Aβ40; over a one week period (168 hrs; 7 days)): ~35%; tolerability (unformed stool) (CSF Aβ40; over the course of the study): no unformed stool or other tolerability issues; GI toxicity (CSF Aβ40 and Aβ42; over a 3 week period): no evidence of GI toxicity; average reduction in CSF Aβ40 levels relative to vehicle-treated controls (CSF Aβ40 and Aβ42; over a 3 week period): approximately 40%; average reduction in CSF Aβ42 levels relative to vehicle-treated controls (CSF Aβ40 and Aβ42; over a 3 week period): approximately 40%; side-effects leading to study termination (CSF Aβ40 and Aβ42; study terminated after 3 weeks): respiratory side-effects unconnected with Notch signaling; AUC(0-t) ([9]; read-out: AUC (0-24)): 138 µM·h; half-life ([9]; read-out: plasma t ½): > 168 h |
| O=S(=O)(N[C@H]1CC[C@@](c2cc(F)ccc2F)(S(=O)(=O)c2ccc(C(F)(F)F)cc2)CC1)C(F)(F)F [Example 62 from U.S. Pat. No. 6,890,956] | 0.99 | 6.0 | 5.9 | 101 | 116 | 0.383 | 254 | 55 | 49.5 | – | – | 154 | 156 | – | – | – | – | – | 0.99 | – |
| O=S(=O)(N[C@H]1CC[C@@](c2cc(F)ccc2F)(S(=O)(=O)c2ccc(Cl)cc2)CC1)C(F)(F)F [MRK-560] | 0.72 | – | 2.2 | 26 | 67 | 4.7 | 18 | 14 | 1.1 | 0.8 | 5.2 | 112 | 155 | 1 | 9.4 | 12 | 23 | 0.8 | 0.51 | IC50 ([4]; Aβ42, read-out: Tissue autonomous Aβ42, Mouse): 0.4 nM; IC50 ([5]; Aβ42, read-out: Tissue autonomous Aβ42, Dog): 1.3 nM; IC50 ([8]; Aβ42, read-out: Tissue autonomous Aβ42, Rat): 0.4 nM |

Source: patent US8609897B2, “Trifluoromethylsulfonamide gamma secretase inhibitor” (Merck Sharp & Dohme Corp., priority 2009, dated 2013)
